# Assays:
# AR-LBD = AR-LBD (Homo sapiens, UniProt P10275); assay: Competitive radioligand binding with [3H]MIB; conditions: DHT = 1.0
# HCI-13 tumor fragments = assay: HCI-13 ex vivo sponge culture, real time PCR; assay type: cell-based; conditions: 3 days
# Description: HCI-13 tumors grown in female mice were allowed to reach 500-1000 mm^3 before the animals were sacrificed and the tumors were excised to be used for sponge culture. Patient specimens frozen in liquid nitrogen in freezing medium were used for sponge culture. […] Tumors were sliced into small pieces (˜1 mm^3) and incubated on pre-soaked gelatin sponges (5 fragments/sponge) in 12 well plates containing 1.5 mL medium (MEM+10% FBS+2 mM L-glutamine+10 μg/mL insulin+10 μg/mL hydrocortisone+penicillin:streptomycin). The cultures were performed in triplicates for HCI-13 and singly for patient specimens. Pooled samples (n=5/sponge) from each sponge constituted one sample. Tissues were harvested after 3 days of treatment, RNA extracted, and expression of various genes measured. Although the same procedure was adopted for specimens obtained from breast cancer patients, the specimens were cultured singly (n=5/sponge=one sample) and not in triplicates as performed for HCI-13.
# [1] = test system: metastatic or locally advanced ER+/AR+ breast cancer; assay: Phase 2 trial G200802, 9 mg or 18 mg daily, ER+/AR+ breast cancer; assay type: in vivo, human; conditions: for ORR / Best overall objective tumor response, CR (patients) / Best overall objective tumor response, PR (patients): post-hoc; for Best overall objective tumor response, CR (patients) / Best overall objective tumor response, PR (patients): all evaluable patients
# Description: Each dose arm was treated independently, and each assessed for efficacy using Simon's two-stage (optimal) design (Simon R. Optimal two-stage designs for Phase 2 clinical trials. Controlled Clinical Trials 1989; 10: 1-10). Subjects were randomized in a 1:1 fashion to one of the two dose arms.
# Randomization was stratified by subjects presenting with bone only metastases and all other subjects, and further by setting of immediately preceding therapy (adjuvant setting or metastatic setting) in order to balance the proportion of subjects with these presenting features in each dose arm.
# Thirty-six to eighty-eight (36-88) subjects with centrally confirmed AR+ who received at least one dose of study drug (evaluable subjects) were needed for primary efficacy analysis purposes and were a subset of the full analysis set (FAS). Fifty patients in the 9 mg cohort and 52 patients in the 18 mg cohort met these criteria. […] Other statistical parameters that were part of the sample size calculation are α=0.025 (one-sided) and power=90%. The first stage in each study arm was assessed among the first 18 evaluable subjects. Greater than 3/18 subjects achieved CB (defined as CR, PR, or SD) at week 24, and both arms proceeded to the second stage of recruitment up to a total of 44 evaluable subjects per arm. Otherwise, the arm would have been discontinued for lack of efficacy. Statistical significance, i.e., rejection of the null hypothesis of an unacceptably low CBR of ≤10% in favor of the alternative hypothesis that indicated the higher rate, ≥30%, was more likely, would be declared if at least 9/44 subjects achieved CB at week 24 in that arm.
# These patients on the study had measurable disease at baseline and an AR staining prior to entry into the study. The radiographic imaging in this patient population was done every 12 weeks (2.7 months). Therefore, the minimum radiographic progression free survival (rPFS) that could be determined is approximately 2.7 months. 90% of the patients in the study had previously received non-endocrine based chemotherapy. The patients in this study had failed an average of 2 prior treatment lines for metastatic disease (range=0-5). FIG. 43 provides a scatterplot for the patients in this study with regard to the correlation between % AR-positive staining at baseline (% AR staining) and rPFS. […] However, in patients with greater than or equal to 40% AR-positive staining, the rPFS was delayed to variable extents (scatter plot pattern) in many to most cases. A positive correlation between rPFS and % AR staining was seen above the threshold of 40% AR staining. To explore this positive correlation further, several subgroups of AR % staining were defined and analyzed for metrics of efficacy, as shown in Table 14.
# AR = molecular target: T1, AR (Homo sapiens, UniProt P10275); conditions: cited from earlier work
# T1 sequence (P10275 1-920): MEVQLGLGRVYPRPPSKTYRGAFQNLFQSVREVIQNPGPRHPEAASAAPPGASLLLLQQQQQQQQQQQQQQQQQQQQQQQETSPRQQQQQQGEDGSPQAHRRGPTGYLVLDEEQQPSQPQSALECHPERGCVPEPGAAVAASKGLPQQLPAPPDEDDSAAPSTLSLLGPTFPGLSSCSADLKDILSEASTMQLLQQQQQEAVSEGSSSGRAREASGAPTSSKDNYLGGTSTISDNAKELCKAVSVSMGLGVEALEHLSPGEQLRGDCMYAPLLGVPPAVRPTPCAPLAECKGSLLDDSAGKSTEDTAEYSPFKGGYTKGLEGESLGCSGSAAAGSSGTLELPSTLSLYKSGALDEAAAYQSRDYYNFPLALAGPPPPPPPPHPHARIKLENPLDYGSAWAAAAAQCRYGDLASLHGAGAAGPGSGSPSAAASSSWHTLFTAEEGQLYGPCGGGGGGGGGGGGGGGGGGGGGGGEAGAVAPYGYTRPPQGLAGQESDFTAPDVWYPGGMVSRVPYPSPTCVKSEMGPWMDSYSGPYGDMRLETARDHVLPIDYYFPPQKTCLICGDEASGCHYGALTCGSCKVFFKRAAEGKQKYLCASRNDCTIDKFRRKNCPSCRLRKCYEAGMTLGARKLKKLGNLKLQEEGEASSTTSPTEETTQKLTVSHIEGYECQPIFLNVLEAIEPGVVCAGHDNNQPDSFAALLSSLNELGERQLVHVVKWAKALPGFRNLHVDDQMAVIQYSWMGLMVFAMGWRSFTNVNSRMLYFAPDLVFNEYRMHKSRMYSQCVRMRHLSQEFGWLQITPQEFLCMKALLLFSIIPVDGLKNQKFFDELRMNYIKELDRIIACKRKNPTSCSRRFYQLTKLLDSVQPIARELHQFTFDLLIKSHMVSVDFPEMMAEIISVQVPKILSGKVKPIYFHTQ
smiles,measurement,setting,value
"C[C@](O)(COc1ccc(C#N)cc1)C(=O)Nc1ccc(C#N)c(Cl)c1 [Formula VIII, (S)—N-(3-chloro-4-cyanophenyl)-3-(4-cyanophenoxy)-2-hydroxy-2-methylpropanamide]",relative binding affinities (RBAs) for AR,AR-LBD,0.314
"C[C@](O)(COc1ccc(C#N)cc1)C(=O)Nc1ccc(C#N)c(C(F)(F)F)c1 [Formula IX, (S)—N-(4-Cyano-3-(trifluoromethyl)phenyl)-3-(4-cyanophenoxy)-2-hydroxy-2-methylpropanamide]",inhibition of ER-induced pS2 and PR gene expression,"HCI-13 tumor fragments; 10 nM DHT, 1 μM Formula IX, 100 nM fulvestrant",effective
same,AR-target gene FKBP5 expression,HCI-13 tumor fragments,induced
same,MKI67 expression,HCI-13 tumor fragments,inhibited
same,responders with duration of response ≥6 months,[1]; 9 mg,67%
same,responders with duration of response ≥12 months,[1]; 9 mg,25%
same,Quality of life assessments,"[1]; 9 mg and 18 mg cohorts, p=0.002",significant improvement from baseline
same,tolerability,[1]; 9 mg and 18 mg doses,well tolerated
same,patients with complete response,"[1]; 9 mg arm, 3 patients who failed palbociclib",33%
same,Median duration of clinical benefit,[1]; 9 mg group,not reached
same,rPFS,"[1]; 9 mg, AR nuclei staining <40%",2.72 months
same,ORR,"[1]; 9 mg, AR nuclei staining <40% (0/22)",0%
same,rPFS,"[1]; 9 mg, AR nuclei staining ≥40%",5.47 months
same,ORR,"[1]; 9 mg, AR nuclei staining ≥40% (12/25)",48%
same,"Best overall objective tumor response, CR (patients)",[1]; 9 mg,3
same,"Best overall objective tumor response, PR (patients)",[1]; 9 mg,8
same,median duration of response,"[1]; 9 mg, patients with objective tumor response, range 2.73 to >27.83",8.18 months
same,response rate,"[1]; 18 mg arm, 6 patients who failed palbociclib",33%
same,Median duration of clinical benefit,[1]; 18 mg group (11 months-16.5 months),14.1 months
same,"Best overall objective tumor response, CR (patients)",[1]; 18 mg,1
same,"Best overall objective tumor response, PR (patients)",[1]; 18 mg,5
same,objective response in ≥60% AR subgroup,"[1]; progressed on estrogen blocking agents and CDK 4/6 inhibitor, 4 patients",75%
same,patients with an objective response,"[1]; progressed on estrogen blocking agents and CDK 4/6 inhibitor, AR ≥40% (7 patients)",3 patients
same,concentration at which it binds to and activates the AR,AR,less than 10 nM
